# Assay results: paper PMC3312006 (2011)
# pIC50: −log10 of the molar value.
# Key:
# [1] = molecular target: T1, histone acetyltransferase p300 (KAT3B) (Homo sapiens, UniProt Q09472); experiment: in vitro filter-binding HAT assay with […]acetyl-CoA and HeLa core histones; format: biochemical
# T1 sequence (Q09472 1066-1707): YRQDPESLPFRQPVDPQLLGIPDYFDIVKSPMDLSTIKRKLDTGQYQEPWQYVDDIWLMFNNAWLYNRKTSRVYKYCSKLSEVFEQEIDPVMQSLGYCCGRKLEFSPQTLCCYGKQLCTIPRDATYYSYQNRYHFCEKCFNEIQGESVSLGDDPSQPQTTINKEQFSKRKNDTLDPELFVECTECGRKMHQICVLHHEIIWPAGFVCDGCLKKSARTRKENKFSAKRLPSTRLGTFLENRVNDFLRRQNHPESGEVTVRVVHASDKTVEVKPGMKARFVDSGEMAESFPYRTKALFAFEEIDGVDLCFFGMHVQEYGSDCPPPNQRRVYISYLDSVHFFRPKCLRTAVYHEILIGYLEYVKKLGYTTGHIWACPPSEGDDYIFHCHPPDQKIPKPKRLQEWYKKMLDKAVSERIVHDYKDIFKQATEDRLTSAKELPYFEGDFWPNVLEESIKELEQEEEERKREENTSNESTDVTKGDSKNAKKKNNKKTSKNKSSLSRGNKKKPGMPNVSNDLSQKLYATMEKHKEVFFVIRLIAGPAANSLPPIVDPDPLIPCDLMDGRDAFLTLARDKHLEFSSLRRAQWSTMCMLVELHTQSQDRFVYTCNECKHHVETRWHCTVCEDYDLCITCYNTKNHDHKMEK
# [2] = molecular target: T1, histone acetyltransferase p300 (KAT3B); experiment: biochemical
pIC50 [1],pIC50 [2],Structure (SMILES)
< 5.70,–,CCCCC[C@H](O)/C=C/[C@H]1C(=O)C=C[C@@H]1C/C=C\CCCC(=O)O [PGJ2]
–,~6.12,CCCCC[C@H](O)C/C=C1/C(=O)C=C[C@@H]1C/C=C\CCCC(=O)O [Δ^12-PGJ2]
